Where two headings read alike, the source gives them in different places.

In data set [1] the test system is HIV-1 −1 PRF signal. It counts as cell-based, human. To be noted: for stimulation of HIV-1 directed −1 PRF: 5-500 μg/ml; for dose dependence of HIV-1 mediated −1 PRF: Example 2.
The subject of data set [2] is SARS-CoV frameshift signal. It is filed as cell-based, human.
The subject of data set [3] is endogenous yeast "Killer" virus. Briefly: Yeast Killer virus maintenance assay after serial passage. It counts as cell-based. To be noted: serial passage every 24 h for eight days.
The test system of data set [4] is M1 satellite virus dsRNA genome. Briefly: dsRNA extraction and TAE-agarose gel of Killer yeast cells. It counts as cell-based. To be noted: gentamicin treated Killer− cells, ~10-times more RNA loaded than control.
Data set [5] relates to HIV-1 strain LAI. The experiment in a line: Limit-dilution titer of infectious virus with p24 antigen capture assay. It counts as cell-based. To be noted: Jurkat E6-1, 250 μg/ml, days 4-10 post infection. How it is done:
(A) Jurkat E6-1 cells were grown in RPMI-1640 media supplemented with 10% FBS. Cells were infected with HIV-1 (LAI) at an MOI of 0.01 in media containing gentamicin at 0, 50, 250, or 500 μg/ml. Infected or mock infected cells were maintained in the above media containing the corresponding concentration of gentamicin. Clarified viral supernatant was assayed for RT activity on days 2, 4, 6, 8, and 10 post infection. […] Results are from an average of 3 experiments with error bars corresponding to standard deviation values. (B) Clarified viral supernatants from days 4, 6, 8, and 10 above were used to perform limit-dilution assays in order to determine the level of infectious virus produced in untreated and gentamicin treated cells. A p24 antigen capture assay was used to detect virus. Results are reported as TCID50/ml vs. day post infection. The antigen capture assay was repeated with similar results while the RT activity assay was repeated twice with similar results.
Cells and viruses. Jurkat E6-1 cells (obtained through the ATCC) were cultured in RPMI-1640 supplemented with 10% fetal bovine serum at 37° C. and 5% CO2 according to the ATCC data sheet. HIV-1 strain LAI was obtained through the NIH AIDS Research and Reference Reagent Program.
HIV infection of Jurkat cells. All experiments were performed with Jurkat cells in 24-well plates and in duplicate. […]

Data set [6] has as its system Jurkat E6-1 cells. To be noted: Jurkat E6-1, 500 μg/ml.
Data set [7] deals with HIV-1 RT (Human immunodeficiency virus type 1 group M subtype B, UniProt P04585). The experiment in a line: Control experiments on HIV-1 RT activity.
Setting [8] is: HeLa cells, 5, 25, 50, 250 and 500 ug/ml.
The mark [9] stands for this setting: Jurkat cells, 5, 25, 50, 250 and 500 ug/ml.

In the case of gentamicin, the “HIV-1 directed −1 PRF at the concentration normally used in cell culture” value in data set [1] (HeLa CD4+ and Jurkat cells, 50 μg/ml) was “increased −1 PRF was observed”. Besides, the “stimulation of HIV-1 directed −1 PRF” value in data set [1] (HeLa CD4+ cells) was “about 40%”; in data set [1] (HeLa CD4+ cells, listed as Gentamicin), “up to 40%”; in data set [1] (Jurkat cells) it was “about 40%”; in data set [1] (Jurkat cells, listed as Gentamicin), “up to 40%”. Also, the “dose dependence of HIV-1 mediated −1 PRF” value in data set [1] (setting [8]) and in data set [1] (setting [9]) was “dose-dependently increased” in each case. Moreover, the “dose dependence of SARS-CoV mediated −1 PRF” value in data set [2] (setting [8]) and in data set [2] (setting [9]) was “dose-dependently increased” each time. Further, the Killer phenotype maintenance result in data set [3] (50 μg/ml) and in data set [3] (500 μg/ml) was “rapid loss of the Killer phenotype” in each case. For the same substance, the “presence of M1 dsRNA genome” value in data set [4] is “no longer present”. In data set [5], the “infectious virus in cell-free supernatant” value was “no infectious virus was made”. Further, the cell toxicity entry is “Significant cell toxicity” in data set [6] and “significant cell toxicity” in data set [6] (listed as Gentamicin). Moreover, the “effect on HIV-1 RT activity” value in data set [7] is recorded as “did not affect HIV-1 RT activity”.
